Assay results taken from publication PMC10098686, “Bright Molecular Strain Probe Templates for Reporting Protein–Protein Interactions” (Sensors (Basel, Switzerland), 2023).

Biological target: T1, Renilla luciferase 8 (RLuc8) (Renilla reniformis, UniProt P27652, A55T/C124A/S130A/K136R/A143M/M185V/M253L/S287L)
T1 construct: RLuc8 in pcDNA3.1(+), stably expressed in MDA-MB231 cells
T1 sequence (P27652 1-311 A55T/C124A/S130A/K136R/A143M/M185V/M253L/S287L): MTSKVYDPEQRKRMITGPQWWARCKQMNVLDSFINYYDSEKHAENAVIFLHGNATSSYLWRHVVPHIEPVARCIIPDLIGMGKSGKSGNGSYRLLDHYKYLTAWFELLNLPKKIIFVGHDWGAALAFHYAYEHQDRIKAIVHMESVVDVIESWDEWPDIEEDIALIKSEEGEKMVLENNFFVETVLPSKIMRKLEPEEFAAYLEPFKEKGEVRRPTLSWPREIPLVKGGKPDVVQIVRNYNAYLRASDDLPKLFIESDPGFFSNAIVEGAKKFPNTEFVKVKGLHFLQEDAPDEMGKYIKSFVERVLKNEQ
Assay: bioluminescence imaging of MDA-MB231 cells expressing the luciferase
Assay type: cell-based
Conditions: stable cells

Oc1ccc(Cc2nc3c(Cc4ccccc4)nc(-c4ccc(O)cc4)cn3c2O)cc1 [nCTZ] was tested, and the “bioluminescence imaging of MDA-MB231 cells expressing the luciferase” value was “exhibited the brightest signal when reacted with nCTZ”.
